Test results taken from patent US20230219986A1, “NOVEL AMINOPYRIMIDINE EGFR INHIBITOR” (QILU PHARMACEUTICAL CO., LTD., priority 2020, published 2023).
Where two headings read alike, the source gives them in different places.

What was measured:
[1] = tested on: EGFR wild-type cell line A431; test: Cell proliferation inhibition experiment (CellTiter-Glo), A431; type: cell-based; settings: A431 cells, Cell Titer-Glo, read-out: A431 EGFR WT IC50
Protocol: A431 cells, purchased from ATCC.
1) A431 cells were inoculated in a 384-well culture plate at a density of 800 cells per well, 30 μL per well, placed in a cell incubator, and cultured for 24 hours (37° C., 5% CO2).
(§1) 3) 30 nL of gradient diluted compound was transferred into the 384-well experimental plate using Echo 550 (Labcyte) at a DMSO final concentration of 0.1%, and the culture plate was incubated in a cell incubator for 72 hours (37° C., 5% CO2).
(§2) 4) 30 μL of Cell Titer-Glo reagent was added to each well and left for 30 minutes at room temperature and protected from light.
(§3) 5) Envision microplate reader (PerkinElmer) detected chemiluminescence signals.
(§4) 6) GraphPad Prism 8 software was used for data analysis to obtain the IC50 of the compounds of the present disclosure and the positive control.

[2] = target: T1, L858R/T790M/C797S triple mutant EGFR (Homo sapiens, UniProt P00533, C797S/L858R/T790M); test: Enzymology experiment in vitro (HTRF/FRET kinase activity), L858R/T790M/C797S triple mutant EGFR; type: biochemical; settings: HTRF KinEASE-TK, read-out: EGFR (L858R/T790M/C797S) IC50
T1 construct: purchased Signalchem
T1 sequence (P00533 25-1210 T790M/C797S/L858R): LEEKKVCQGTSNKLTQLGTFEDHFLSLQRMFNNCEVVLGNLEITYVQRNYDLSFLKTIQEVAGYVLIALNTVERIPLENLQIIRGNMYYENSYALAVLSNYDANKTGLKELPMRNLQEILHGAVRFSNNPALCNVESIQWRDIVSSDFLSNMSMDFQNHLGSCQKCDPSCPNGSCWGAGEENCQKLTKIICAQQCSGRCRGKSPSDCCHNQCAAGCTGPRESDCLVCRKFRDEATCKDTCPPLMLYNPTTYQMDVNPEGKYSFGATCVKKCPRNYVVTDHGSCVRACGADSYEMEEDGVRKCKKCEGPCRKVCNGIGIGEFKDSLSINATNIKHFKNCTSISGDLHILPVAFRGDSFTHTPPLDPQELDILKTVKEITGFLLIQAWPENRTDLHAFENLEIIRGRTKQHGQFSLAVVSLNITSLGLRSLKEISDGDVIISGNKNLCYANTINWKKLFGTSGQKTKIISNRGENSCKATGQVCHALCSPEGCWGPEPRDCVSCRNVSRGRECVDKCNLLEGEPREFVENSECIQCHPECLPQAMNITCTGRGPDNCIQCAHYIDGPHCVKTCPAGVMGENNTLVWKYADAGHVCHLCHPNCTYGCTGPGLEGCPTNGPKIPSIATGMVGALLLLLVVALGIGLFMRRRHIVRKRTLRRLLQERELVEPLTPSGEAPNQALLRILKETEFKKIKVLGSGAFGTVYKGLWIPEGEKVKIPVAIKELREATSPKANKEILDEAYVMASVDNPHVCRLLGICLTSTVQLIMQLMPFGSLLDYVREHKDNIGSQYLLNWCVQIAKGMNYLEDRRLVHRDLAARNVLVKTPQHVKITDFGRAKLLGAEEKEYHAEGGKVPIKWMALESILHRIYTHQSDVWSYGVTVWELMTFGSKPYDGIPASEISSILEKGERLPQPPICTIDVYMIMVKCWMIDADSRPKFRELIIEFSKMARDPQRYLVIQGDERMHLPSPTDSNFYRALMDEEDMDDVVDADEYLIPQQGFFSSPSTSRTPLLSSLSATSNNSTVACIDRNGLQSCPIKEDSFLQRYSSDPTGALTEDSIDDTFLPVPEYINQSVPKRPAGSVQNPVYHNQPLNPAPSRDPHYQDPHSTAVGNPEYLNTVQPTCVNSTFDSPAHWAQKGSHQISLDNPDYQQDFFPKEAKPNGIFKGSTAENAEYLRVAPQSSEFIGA
Protocol: (§5) 1. Experimental Materials
(§6) HTRF KinEASE-TK kit detection reagent, purchased from Cisbio
(§7) 1) 10 nL of gradient diluted compound was transferred into a 384-well experimental plate using Echo 550 (Labcyte).
(§8) 2) 5 μL of 2×EGFR enzyme solution was added to the 384-well experimental plate and incubated at room temperature for 10 minutes.
(§9) 3) 5 μL of 2× substrate solution containing polypeptide and ATP was added to the 384-well experimental plate and incubated at room temperature for 40 minutes.
(§10) 4) 10 μL of detection solution containing EDTA, XL665-labeled streptavidin and Eu^3+-labeled antibody was added thereto and incubated at room temperature for 1 hour.

[3] = target: Ba/F3 De119/T790M/C797S EGFR triple mutant cell line (Homo sapiens, UniProt P00533, T790M/C797S, cells depend on it, form not given); test: Cell proliferation inhibition experiment (CellTiter-Glo), Ba/F3 De119/T790M/C797S; type: cell-based; settings: Ba/F3 Del19/T790M/C797S EGFR triple mutant cells, 72 hours, Cell Titer-Glo; read-out: Ba/F3 (Del19/T790M/C797S) IC50
Ba/F3 De119/T790M/C797S EGFR triple mutant cell line, sequence (P00533 with tags, fused parts or gaps DEL746-750/T790M/C797S, form open): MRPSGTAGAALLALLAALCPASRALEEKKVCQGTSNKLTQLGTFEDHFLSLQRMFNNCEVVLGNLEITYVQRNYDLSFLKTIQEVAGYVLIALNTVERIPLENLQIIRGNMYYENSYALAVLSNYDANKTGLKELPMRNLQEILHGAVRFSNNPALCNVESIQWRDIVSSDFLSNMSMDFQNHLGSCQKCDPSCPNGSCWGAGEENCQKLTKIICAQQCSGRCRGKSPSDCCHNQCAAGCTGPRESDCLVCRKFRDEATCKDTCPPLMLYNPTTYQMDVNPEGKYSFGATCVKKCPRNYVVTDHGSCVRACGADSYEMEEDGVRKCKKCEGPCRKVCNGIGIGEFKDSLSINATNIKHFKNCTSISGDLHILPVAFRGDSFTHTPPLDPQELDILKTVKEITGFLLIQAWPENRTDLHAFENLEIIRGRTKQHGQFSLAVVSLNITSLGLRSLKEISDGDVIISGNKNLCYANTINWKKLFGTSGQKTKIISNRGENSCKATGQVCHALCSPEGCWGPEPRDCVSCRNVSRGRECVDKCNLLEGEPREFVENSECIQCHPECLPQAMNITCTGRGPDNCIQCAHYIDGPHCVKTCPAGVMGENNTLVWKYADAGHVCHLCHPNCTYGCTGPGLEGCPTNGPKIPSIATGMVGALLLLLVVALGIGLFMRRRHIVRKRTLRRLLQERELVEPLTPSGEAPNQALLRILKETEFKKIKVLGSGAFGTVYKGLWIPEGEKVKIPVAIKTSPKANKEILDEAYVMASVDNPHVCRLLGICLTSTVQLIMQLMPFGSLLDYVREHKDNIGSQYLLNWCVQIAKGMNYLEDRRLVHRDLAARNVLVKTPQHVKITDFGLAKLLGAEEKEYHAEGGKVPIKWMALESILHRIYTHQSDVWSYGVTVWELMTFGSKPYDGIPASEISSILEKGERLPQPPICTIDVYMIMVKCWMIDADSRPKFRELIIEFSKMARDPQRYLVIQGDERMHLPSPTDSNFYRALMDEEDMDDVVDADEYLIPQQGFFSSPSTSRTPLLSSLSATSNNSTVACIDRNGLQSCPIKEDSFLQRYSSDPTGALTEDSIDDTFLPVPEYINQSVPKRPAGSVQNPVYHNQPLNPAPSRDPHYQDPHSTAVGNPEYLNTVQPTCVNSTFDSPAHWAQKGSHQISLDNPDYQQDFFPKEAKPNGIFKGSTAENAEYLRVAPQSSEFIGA
Protocol: as §1, §2, §3, §4

[4] = target: Ba/F3 L858R/T790M/C797S EGFR triple mutant cell line (Homo sapiens, UniProt P00533, T790M/C797S/L858R, cells depend on it); test: Cell proliferation inhibition experiment (CellTiter-Glo), Ba/F3 L858R/T790M/C797S; type: cell-based; settings: 72 hours, Cell Titer-Glo, read-out: Ba/F3 (L858R/T790M/C797S) IC50
Ba/F3 L858R/T790M/C797S EGFR triple mutant cell line, sequence (P00533 whole entry T790M/C797S/L858R): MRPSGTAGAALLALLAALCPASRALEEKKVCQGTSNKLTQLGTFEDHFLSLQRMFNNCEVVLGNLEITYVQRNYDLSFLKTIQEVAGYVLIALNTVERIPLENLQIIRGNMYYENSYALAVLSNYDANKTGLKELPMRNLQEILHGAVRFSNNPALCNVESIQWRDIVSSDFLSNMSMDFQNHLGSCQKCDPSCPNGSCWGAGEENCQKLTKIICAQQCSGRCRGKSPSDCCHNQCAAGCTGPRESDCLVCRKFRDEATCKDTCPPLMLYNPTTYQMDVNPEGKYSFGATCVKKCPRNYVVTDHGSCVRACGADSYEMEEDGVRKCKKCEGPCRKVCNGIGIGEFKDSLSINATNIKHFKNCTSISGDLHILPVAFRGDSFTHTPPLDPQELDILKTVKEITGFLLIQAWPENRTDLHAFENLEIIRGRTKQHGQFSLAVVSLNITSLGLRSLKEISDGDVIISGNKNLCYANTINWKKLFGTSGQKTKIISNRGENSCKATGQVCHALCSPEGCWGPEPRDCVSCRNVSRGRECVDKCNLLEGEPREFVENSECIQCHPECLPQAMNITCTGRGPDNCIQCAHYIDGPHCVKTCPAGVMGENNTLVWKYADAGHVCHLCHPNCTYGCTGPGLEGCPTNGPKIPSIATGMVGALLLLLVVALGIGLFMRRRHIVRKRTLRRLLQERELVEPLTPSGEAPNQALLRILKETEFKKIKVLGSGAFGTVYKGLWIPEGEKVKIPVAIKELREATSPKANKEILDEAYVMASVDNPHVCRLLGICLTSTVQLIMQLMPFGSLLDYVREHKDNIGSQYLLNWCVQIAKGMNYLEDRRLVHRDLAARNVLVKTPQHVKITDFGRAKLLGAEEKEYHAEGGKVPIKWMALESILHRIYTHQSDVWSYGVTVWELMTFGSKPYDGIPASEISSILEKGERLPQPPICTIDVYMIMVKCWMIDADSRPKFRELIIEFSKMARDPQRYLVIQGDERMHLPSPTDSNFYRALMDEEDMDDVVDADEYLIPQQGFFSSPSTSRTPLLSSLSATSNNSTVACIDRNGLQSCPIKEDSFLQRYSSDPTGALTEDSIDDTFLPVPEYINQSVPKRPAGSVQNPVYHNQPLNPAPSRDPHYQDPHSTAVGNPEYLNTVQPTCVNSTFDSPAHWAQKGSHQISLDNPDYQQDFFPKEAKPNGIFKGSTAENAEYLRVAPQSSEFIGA
Protocol: as §1, §2, §3, §4

[5] = target: T2, wild-type EGFR (Homo sapiens, UniProt P00533); test: Enzymology experiment in vitro (HTRF/FRET kinase activity), wild-type EGFR; type: biochemical; settings: HTRF KinEASE-TK, read-out: EGFR (WT) IC50
T2 construct: purchased Signalchem
T2 sequence (P00533 25-1210): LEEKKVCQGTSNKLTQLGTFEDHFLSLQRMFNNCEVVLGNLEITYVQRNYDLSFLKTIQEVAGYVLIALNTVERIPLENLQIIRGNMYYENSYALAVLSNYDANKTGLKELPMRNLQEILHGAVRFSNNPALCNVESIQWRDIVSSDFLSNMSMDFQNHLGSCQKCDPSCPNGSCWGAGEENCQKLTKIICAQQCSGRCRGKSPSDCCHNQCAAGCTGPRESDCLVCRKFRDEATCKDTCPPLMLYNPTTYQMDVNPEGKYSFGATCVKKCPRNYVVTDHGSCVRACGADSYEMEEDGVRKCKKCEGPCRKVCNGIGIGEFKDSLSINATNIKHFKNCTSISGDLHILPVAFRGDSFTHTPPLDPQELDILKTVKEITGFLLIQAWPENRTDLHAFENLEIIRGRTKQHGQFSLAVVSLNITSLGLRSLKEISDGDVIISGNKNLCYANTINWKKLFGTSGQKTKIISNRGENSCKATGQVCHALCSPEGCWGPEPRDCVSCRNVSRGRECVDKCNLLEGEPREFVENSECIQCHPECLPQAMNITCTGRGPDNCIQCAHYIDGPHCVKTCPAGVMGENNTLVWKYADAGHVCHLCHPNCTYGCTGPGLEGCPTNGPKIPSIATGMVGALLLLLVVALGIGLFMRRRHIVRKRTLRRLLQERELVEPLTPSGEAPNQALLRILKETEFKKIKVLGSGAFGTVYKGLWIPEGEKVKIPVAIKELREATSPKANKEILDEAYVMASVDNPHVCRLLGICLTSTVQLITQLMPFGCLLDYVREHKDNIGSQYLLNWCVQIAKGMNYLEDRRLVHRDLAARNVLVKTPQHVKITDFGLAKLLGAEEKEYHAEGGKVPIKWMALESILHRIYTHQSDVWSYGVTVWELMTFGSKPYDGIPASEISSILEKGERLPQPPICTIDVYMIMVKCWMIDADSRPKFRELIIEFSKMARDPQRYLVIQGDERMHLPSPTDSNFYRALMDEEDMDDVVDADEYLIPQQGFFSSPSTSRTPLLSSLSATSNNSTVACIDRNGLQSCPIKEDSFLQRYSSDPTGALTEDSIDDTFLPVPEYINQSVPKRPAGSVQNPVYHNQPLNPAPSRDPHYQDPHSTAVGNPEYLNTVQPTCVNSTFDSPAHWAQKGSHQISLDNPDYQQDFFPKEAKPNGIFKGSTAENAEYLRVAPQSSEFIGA
Protocol: as §5, §6, §7, §8, §9, §10

Row | IC50 ([1]; Homo sapiens, A-431, 72 h) | IC50 [2] | GI50 [3] | GI50 [4] | IC50 [5] | IC50 ([1]; 72 hours) | SMILES
1 | 402 nM | 0.47 nM | 3.68 nM | 13.3 nM | 15.6 nM |  | COc1cc(N2CC(C)OC(C)C2)c(-c2cnn(C)c2)cc1Nc1ncc(Br)c(Nc2ccc3nccnc3c2P(C)(C)=O)n1 (racemic) [compound 135, (6-((5-bromo-2-((4-(trans-2,6-dimethylmorpholinyl)-2-methoxy-5-(1-methyl-1H-pyrazol-4-yl)phenyl)amino))pyrimidin-4-yl)amino)quinoxalin-5-yl)dimethylphosphine oxide]
2 | 1750 nM | 5.3 nM | 13.7 nM | 57.1 nM | 99.5 nM |  | COc1cc(N2CC(C)OC(C)C2)c(-c2cnn(C)c2)cc1Nc1ncc(Br)c(Nc2cc3c(cc2P(C)(C)=O)CC3)n1 (racemic) [compound 136]
3 |  | 9.81 nM | 27.1 nM | 77.8 nM | 170 nM | 1500 nM | COc1cc(N2CC(C)OC(C)C2)c(-c2cnn(C)c2)cc1Nc1ncc(Br)c(Nc2cc3c(cc2P(C)(C)=O)CC3)n1 (racemic) [compound 137]
4 | 307 nM | 0.6 nM | 4.63 nM | 7.85 nM | 2.39 nM |  | COc1cc(N2CCC(N3CC(C)OC(C)C3)CC2)c(-c2cnn(C)c2)cc1Nc1ncc(Br)c(Nc2ccc3nccnc3c2P(C)(C)=O)n1 (racemic) [compound 174]
5 | 320 nM | 0.67 nM | 2.98 nM | 15.6 nM | 27.7 nM |  | COc1cc(N2CC(C)OC(C)C2)c(-c2cnn(C)c2)cc1Nc1ncc(Br)c(Nc2ccc3nccnc3c2P(C)(C)=O)n1 (single isomer, unassigned) [155a]
6 | 38.4 nM | 0.37 nM | 2.52 nM | 5.65 nM | 5.44 nM |  | COc1cc(N2CC[C@@H]3CCN(CC4CC4)[C@@H]3C2)c(-c2cnn(C)c2)cc1Nc1ncc(Br)c(Nc2ccc3nccnc3c2P(C)(C)=O)n1 (single isomer, unassigned) [234b]
7 | 120 nM | 0.74 nM | 2.22 nM | 3.7 nM | 6.92 nM |  | COc1cc(N2CCC3(CC2)CO[C@@H](C)[C@@H]3N(C)C)c(-c2cnn(C)c2)cc1Nc1ncc(Br)c(Nc2ccc3nccnc3c2P(C)(C)=O)n1 (stereo in doubt) [compound 201]
8 | 24.5 nM | < 0.05 nM | 1.99 nM | 5.96 nM | 0.17 nM |  | COc1cc(N2CCN(C)CC2)c(-c2cnn(C)c2)cc1Nc1ncc(Br)c(Nc2ccc3nccnc3c2P(C)(C)=O)n1 [Compound 6]
9 | 398 nM | 0.89 nM | 43.4 nM | 84.3 nM | 7.62 nM |  | COc1cc(N2CCOCC2)c(-c2cnn(C)c2)cc1Nc1ncc(C#N)c(Nc2ccc3nccnc3c2P(C)(C)=O)n1 [Compound 13, 4-((5-(dimethylphosphoryl)quinoxalin-6-yl)amino)-2-((2-methoxy-5-(1-methyl-1H-pyrazol-4-yl)-4-morpholinylphenyl)amino)pyrimidine-5-carbonitrile]

Continued, compound first:

Row | SMILES | IC50 ([1]; Homo sapiens, A-431, 72 h) | IC50 [2] | GI50 [3] | GI50 [4] | IC50 [5] | IC50 ([1]; 72 hours)
10 | COc1cc(N2CCC(N3CCOC(C)C3)CC2)c(-c2cnn(C)c2)cc1Nc1ncc(Br)c(Nc2ccc3nccnc3c2P(C)(C)=O)n1 (racemic) [compound 148, (6-((5-bromo-2-((2-methoxy-5-(1-methyl-1H-pyrazol-4-yl)-4-(4-(2-methylmorpholinyl)piperidin-1-yl)phenyl)amino)pyrimidin-4-yl)amino)quinoxalin-5-yl)dimethylphosphine oxide] | 124 nM | 0.64 nM | 0.7 nM | 2.78 nM | 5.04 nM | 
11 | COc1cc(N2CCC3(CC2)CN(C)CC(C)O3)c(-c2cnn(C)c2)cc1Nc1ncc(Br)c(Nc2ccc3nccnc3c2P(C)(C)=O)n1 (racemic) [compound 217, (6-((5-Bromo-2-((4-(2,4-dimethyl-1-oxa-4,9-diazaspiro[5.5]undecan-9-yl)-2-methoxy-5-(1-methyl-1H-pyrazol-4-yl)phenyl)amino)pyrimidin-4-yl)amino)quinoxalin-5-yl)dimethylphosphine oxide] | 60.5 nM | 0.95 nM | 0.94 nM | 3.29 nM | 3.87 nM | 
12 | COc1cc(N2CCC3C(C2)CN3C)c(-c2cnn(C)c2)cc1Nc1ncc(Br)c(Nc2ccc3nccnc3c2P(C)(C)=O)n1 (racemic) [compound 221] | 26.2 nM | 0.09 nM | 2.41 nM | 2.79 nM | 1.37 nM | 
13 | COc1cc(N2CCC(N3CC(F)C3)C2)c(-c2cnn(C)c2)cc1Nc1ncc(Br)c(Nc2ccc3nccnc3c2P(C)(C)=O)n1 (racemic) [compound 223, (6-((5-Bromo-2-((4-(3-(3-fluoroazetidin-1-yl)pyrrolidin-1-yl)-2-methoxy-5-(1-methyl-1H-pyrazol-4-yl)phenyl)amino)pyrimidin-4-yl)amino)quinoxalin-5-yl)dimethylphosphine oxide] | 76.9 nM | 0.17 nM | 2.88 nM | 3.56 nM | 7 nM | 
14 | COc1cc(N2CC(C)OC(C)C2)c(-c2cnn(C)c2)cc1Nc1ncc(Br)c(Nc2ccc3nccnc3c2P(C)(C)=O)n1 (single isomer, unassigned) [155b] |  | 0.8 nM | 1.63 nM | 7.55 nM | 21.6 nM | 213 nM
15 | COc1cc(N2CCC3CCN(CC4CC4)C3C2)c(-c2cnn(C)c2)cc1Nc1ncc(Br)c(Nc2ccc3nccnc3c2P(C)(C)=O)n1 (single isomer, unassigned) [234a] | 42.4 nM | 0.32 nM | 2.05 nM | 3.91 nM | 5.04 nM | 
16 | COc1cc(N2CCOCC2)c(-c2cnn(C)c2)cc1Nc1ncc(Br)c(Nc2ccc3nccnc3c2P(C)(C)=O)n1 [Compound 1, (6-((5-bromo-2-((2-methoxy-5-(1-methyl-1H-pyrazol-4-yl)-4-morpholinophenyl)amino)pyrimidin-4-yl)amino)quinoxalin-5-yl)-dimethylphosphine oxide] | 137 nM | 0.12 nM | 0.58 nM | 5.61 nM | 0.94 nM | 
17 | COc1cc(N2CCOCC2)c(-c2cnn(C)c2)cc1Nc1ncc(Br)c(Nc2ccccc2P(C)(C)=O)n1 [Compound 2, (2-((5-bromo-2-((2-methoxy-5-(1-methyl-1H-pyrazol-4-yl)-4-morpholinylphenyl)amino)pyrimidin-4-yl)amino)phenyl)dimethylphosphine oxide] | 316 nM | 0.09 nM | 4.21 nM | 17.5 nM | 18 nM | 
18 | COc1nc(N2CCOCC2)c(-c2cnn(C)c2)cc1Nc1ncc(Br)c(Nc2ccc3nccnc3c2P(C)(C)=O)n1 [Compound 7, (6-((5-bromo-2-((2-methoxy-5-(1-methyl-1H-pyrazol-4-yl)-6-morpholinylpyridin-3-yl)amino)pyrimidin-4-yl)amino)quinoxalin-5-yl)dimethylphosphine oxide] | 159 nM | 0.23 nM | 4.43 nM | 14.8 nM | 9.88 nM | 
19 | COc1cc(N2CCOCC2)c(-c2cnn(S(=O)(=O)C3CC3)c2)cc1Nc1ncc(Br)c(Nc2ccc3nccnc3c2P(C)(C)=O)n1 [Compound 8, (6-((5-bromo-2-((5-(1-(cyclopropylsulfonyl)-1H-pyrazol-4-yl)-2-methoxy-4-morpholinylphenyl)amino)pyrimidin-4-yl)amino)quinoxalin-5-yl)dimethylphosphine oxide] | 769 nM | 3.19 nM | 69 nM | 137 nM | 358 nM | 
20 | Cn1cc(-c2cc(Nc3ncc(Br)c(Nc4ccc5nccnc5c4P(C)(C)=O)n3)c3c(c2N2CCOCC2)CCCO3)cn1 [compound 51] | 292 nM | 0.11 nM |  | 36.8 nM | 111 nM | 
21 | COc1cnc(-c2cnn(C)c2)cc1Nc1ncc(C)c(Nc2ccc3nccnc3c2P(C)(C)=O)n1 [compound 53] | 294 nM | 3.6 nM | 62.2 nM |  | 87 nM | 
